What all share (format): biochemical
For experiment [1], the target named is CDK1/Cyclin B1 (Homo sapiens, UniProt P06493). Description: CDK1/Cyclin B1 kinase assay (Nanosyn, Caliper microfluidic). As to conditions: 12-point dose-response, ATP at Km (40 μM), 3 hr. An outline of the steps:
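Mobility-shift microfluidic kinase assay, 12-point dose-response in singlicate. Conditions: 0.08 nM enzyme, 40 μM ATP (Km), 1 μM peptide substrate, 3 hr incubation; staurosporine as reference.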

Experiment [2] addresses CDK2/Cyclin E (Homo sapiens, UniProt P24941). The experiment in a line: CDK2/Cyclin E kinase assay (Nanosyn, Caliper microfluidic). As to conditions: 12-point dose-response, ATP at Km (100 μM), 3 hr. In short, it runs like this: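 Caliper microfluidic mobility-shift readout of phosphorylation of 1 μM substrate peptide by 0.15 nM enzyme at 100 μM ATP (stated as Km), 3 hr incubation. 12-point dose-response in singlicate, staurosporine as reference.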

Experiment [3] has as its target CDK5/p25 (Homo sapiens, UniProt Q00535). The experiment in a line: CDK5/p25 kinase assay (Nanosyn, Caliper microfluidic). As to conditions: 12-point dose-response, ATP at Km (20 μM), 3 hr. In short, it runs like this: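 Caliper microfluidic mobility-shift assay, 12-point dose-response in singlicate. CDK5/p25 at 0.1 nM with 20 μM ATP (Km) and 1 μM peptide substrate. Incubation 3 hr.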

Experiment [4] addresses CDK4/Cyclin D1 (Homo sapiens, UniProt P11802). The experiment in a line: CDK4/Cyclin D1 kinase assay (Nanosyn, Caliper microfluidic). As to conditions: 12-point dose-response, ATP at Km (200 μM), 3 hr; Table 4. An outline of the steps: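 Caliper microfluidic mobility-shift read-out, 12-point dose-response in singlicate. 1 nM enzyme, 200 μM ATP (Km), 1 μM peptide substrate, 3 hr incubation; staurosporine as reference.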

The target in experiment [5] is CDK7/Cyclin H (Homo sapiens, UniProt P50613). Description: CDK7/Cyclin H kinase assay (Nanosyn, Caliper microfluidic). As to conditions: 12-point dose-response, ATP at Km (50 μM), 17 hr. In short, it runs like this:
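Caliper microfluidic mobility-shift assay with 10 nM CDK7/Cyclin H, 50 μM ATP (Km) and 1 μM peptide substrate, incubated 17 hr. Compounds run in 12-point dose-response, singlicate.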

Experiment [6] concerns the target CDK9/Cyclin T (Homo sapiens, UniProt P50750). Description: CDK9/Cyclin T kinase assay (Nanosyn, Caliper microfluidic). As to conditions: 12-point dose-response, ATP at Km (10 μM), 17 hr; Table 5. In short, it runs like this: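 Caliper microfluidic mobility-shift read-out, 12-point dose-response in singlicate at ATP Km with 1 μM peptide substrate; staurosporine reference.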

The target of experiment [7] is CDK3/Cyclin E (Homo sapiens, UniProt Q00526). Description: CDK3/Cyclin E kinase assay (Nanosyn, Caliper microfluidic). As to conditions: 12-point dose-response, ATP at Km (400 μM), 3 hr. An outline of the steps: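 Caliper microfluidic mobility-shift read-out with 1 nM enzyme, 400 μM ATP (stated as Km) and 1 μM peptide substrate, 3 hr incubation. Compounds run as 12-point dose-response in singlicate.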

Experiment [8] has as its target CDK5/p35 (Homo sapiens, UniProt Q00535). Description: CDK5/p35 kinase assay (Nanosyn, Caliper microfluidic). The following applies: 12-point dose-response, ATP at Km (20 μM), 3 hr. In short, it runs like this:
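Microfluidic mobility-shift kinase assay with 0.05 nM CDK5/p35, 20 μM ATP (Km) and 1 μM peptide substrate, 3 hr incubation. Compounds tested as 12-point dose–response in singlicate; staurosporine as reference.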

Experiment [9] has as its target CDK6/Cyclin D3 (Homo sapiens, UniProt Q00534). The experiment in a line: CDK6/Cyclin D3 kinase assay (Nanosyn, Caliper microfluidic). The following applies: 12-point dose-response, ATP at Km (300 μM), 3 hr. An outline of the steps:
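Caliper microfluidic assay with 2 nM enzyme, 300 μM ATP and 1 μM phosphoacceptor peptide, incubated for 3 hr. Compounds were run as 12-point dose-response curves in singlicate.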

For experiment [10], the target named is CDK2/Cyclin A (Homo sapiens, UniProt P24941). Description: CDK2/Cyclin A kinase assay (Nanosyn, Caliper microfluidic). The following applies: 12-point dose-response, ATP at Km (50 μM), 3 hr. In short, it runs like this:
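Caliper microfluidic mobility-shift read-out; 0.1 nM enzyme, 50 μM ATP (Km), 1 μM peptide substrate, 3 hr incubation. 12-point dose-response in singlicate; staurosporine as reference.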

For five compounds, IC50 results are on record in patent US20200331925A1, “HETEROCYCLIC COMPOUNDS FOR THE TREATMENT OF ABNORMAL CELLULAR PROLIFERATION” (G1 Therapeutics, Inc., priority 2018, published 2020).

A word on the IC50: it is the concentration needed to halve the response being measured. Higher therefore signals weaker potency in that assay.

Sequence of CDK4/Cyclin D1 (P11802 whole entry): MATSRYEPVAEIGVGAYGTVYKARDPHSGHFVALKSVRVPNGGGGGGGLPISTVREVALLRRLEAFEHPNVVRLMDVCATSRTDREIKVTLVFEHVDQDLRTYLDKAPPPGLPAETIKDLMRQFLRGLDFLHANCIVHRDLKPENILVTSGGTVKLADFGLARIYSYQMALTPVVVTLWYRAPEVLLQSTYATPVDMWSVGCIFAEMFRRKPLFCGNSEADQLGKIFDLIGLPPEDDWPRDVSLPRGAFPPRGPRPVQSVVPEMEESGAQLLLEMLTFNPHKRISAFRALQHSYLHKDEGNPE
Sequence of CDK4/Cyclin D1 (P24385 whole entry partner): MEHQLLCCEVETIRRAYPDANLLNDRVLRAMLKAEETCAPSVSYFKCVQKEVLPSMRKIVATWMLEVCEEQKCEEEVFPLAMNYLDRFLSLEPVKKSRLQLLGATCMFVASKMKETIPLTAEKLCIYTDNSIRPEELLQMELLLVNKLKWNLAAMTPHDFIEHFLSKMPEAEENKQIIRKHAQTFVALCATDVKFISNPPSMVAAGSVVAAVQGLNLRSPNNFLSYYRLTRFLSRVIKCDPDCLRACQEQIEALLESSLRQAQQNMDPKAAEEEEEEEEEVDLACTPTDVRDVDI
Sequence of CDK1/Cyclin B1 (P06493 whole entry): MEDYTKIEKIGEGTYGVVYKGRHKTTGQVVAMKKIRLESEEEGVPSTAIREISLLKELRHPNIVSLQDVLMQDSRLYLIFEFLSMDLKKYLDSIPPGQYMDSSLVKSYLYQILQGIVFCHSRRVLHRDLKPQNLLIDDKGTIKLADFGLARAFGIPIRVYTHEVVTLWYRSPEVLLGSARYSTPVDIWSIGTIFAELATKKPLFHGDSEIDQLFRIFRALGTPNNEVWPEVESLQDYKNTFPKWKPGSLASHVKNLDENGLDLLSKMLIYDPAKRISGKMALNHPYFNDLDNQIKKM
Sequence of CDK1/Cyclin B1 (P14635 whole entry partner): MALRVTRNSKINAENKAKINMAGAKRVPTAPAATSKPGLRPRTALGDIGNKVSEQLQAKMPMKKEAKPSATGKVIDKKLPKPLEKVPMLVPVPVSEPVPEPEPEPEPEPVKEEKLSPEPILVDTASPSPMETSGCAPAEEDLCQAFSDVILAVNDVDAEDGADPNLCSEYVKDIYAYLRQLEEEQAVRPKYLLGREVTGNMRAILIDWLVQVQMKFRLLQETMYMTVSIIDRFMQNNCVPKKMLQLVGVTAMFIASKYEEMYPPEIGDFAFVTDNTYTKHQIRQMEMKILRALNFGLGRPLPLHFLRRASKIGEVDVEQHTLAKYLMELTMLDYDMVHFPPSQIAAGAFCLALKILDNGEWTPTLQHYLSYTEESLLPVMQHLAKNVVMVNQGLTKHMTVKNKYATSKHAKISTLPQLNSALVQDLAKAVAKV
Sequence of CDK6/Cyclin D3 (Q00534 whole entry): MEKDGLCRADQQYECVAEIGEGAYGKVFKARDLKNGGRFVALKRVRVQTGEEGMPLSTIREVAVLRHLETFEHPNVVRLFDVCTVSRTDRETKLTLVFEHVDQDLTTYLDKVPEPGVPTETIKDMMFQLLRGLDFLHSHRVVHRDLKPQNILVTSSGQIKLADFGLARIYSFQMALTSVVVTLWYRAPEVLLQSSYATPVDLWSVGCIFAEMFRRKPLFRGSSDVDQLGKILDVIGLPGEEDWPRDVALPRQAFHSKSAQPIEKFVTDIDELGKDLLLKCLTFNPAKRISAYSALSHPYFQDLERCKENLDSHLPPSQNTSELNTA
Sequence of CDK6/Cyclin D3 (P30281 whole entry partner): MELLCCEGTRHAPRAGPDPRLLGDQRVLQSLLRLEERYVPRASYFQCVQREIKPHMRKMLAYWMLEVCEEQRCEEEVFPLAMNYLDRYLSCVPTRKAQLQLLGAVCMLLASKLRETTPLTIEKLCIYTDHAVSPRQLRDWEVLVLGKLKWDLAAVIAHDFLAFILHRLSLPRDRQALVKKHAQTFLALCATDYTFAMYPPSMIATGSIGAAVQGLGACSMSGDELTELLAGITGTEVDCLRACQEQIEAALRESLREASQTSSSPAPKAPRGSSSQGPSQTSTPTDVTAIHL
Sequence of CDK5/p25 (Q00535 whole entry): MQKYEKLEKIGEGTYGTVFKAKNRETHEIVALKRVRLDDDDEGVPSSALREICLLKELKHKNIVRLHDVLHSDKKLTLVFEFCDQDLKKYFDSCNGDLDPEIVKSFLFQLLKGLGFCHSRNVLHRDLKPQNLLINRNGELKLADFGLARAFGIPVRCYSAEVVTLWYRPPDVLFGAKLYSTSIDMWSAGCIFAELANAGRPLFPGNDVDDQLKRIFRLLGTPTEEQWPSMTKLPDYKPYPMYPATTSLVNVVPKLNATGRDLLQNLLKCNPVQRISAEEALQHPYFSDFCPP
Sequence of CDK5/p25 (Q15078 99-307 partner limits assumed): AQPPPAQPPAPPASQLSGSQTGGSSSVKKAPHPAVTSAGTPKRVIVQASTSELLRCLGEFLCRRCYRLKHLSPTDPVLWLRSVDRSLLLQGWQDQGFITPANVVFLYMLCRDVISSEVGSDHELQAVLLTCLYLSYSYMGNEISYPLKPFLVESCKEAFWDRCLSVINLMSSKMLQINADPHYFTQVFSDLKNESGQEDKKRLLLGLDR
Sequence of CDK5/p35 (Q00535 whole entry): as the sequence (Q00535 whole entry) above
Sequence of CDK5/p35 (Q15078 whole entry partner): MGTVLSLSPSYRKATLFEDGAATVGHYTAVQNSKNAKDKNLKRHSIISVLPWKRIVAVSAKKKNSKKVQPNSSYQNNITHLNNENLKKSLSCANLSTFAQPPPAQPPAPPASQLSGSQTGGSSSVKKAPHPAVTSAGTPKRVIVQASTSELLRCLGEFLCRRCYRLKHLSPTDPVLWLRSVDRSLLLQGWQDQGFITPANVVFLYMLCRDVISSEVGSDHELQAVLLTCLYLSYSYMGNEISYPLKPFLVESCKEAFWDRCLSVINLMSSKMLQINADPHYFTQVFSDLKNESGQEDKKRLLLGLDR
Sequence of CDK9/Cyclin T (P50750 whole entry): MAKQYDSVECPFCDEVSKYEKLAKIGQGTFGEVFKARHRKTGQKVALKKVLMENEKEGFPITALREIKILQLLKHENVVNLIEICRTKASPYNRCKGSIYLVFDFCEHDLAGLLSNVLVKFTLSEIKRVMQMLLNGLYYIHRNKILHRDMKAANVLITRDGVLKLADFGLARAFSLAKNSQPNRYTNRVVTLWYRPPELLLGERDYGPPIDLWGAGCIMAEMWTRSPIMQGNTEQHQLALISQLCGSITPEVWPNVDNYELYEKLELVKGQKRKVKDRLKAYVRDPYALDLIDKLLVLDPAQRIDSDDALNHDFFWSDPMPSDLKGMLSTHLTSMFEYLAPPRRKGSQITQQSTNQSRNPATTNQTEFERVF
Sequence of CDK9/Cyclin T (O60563 whole entry partner): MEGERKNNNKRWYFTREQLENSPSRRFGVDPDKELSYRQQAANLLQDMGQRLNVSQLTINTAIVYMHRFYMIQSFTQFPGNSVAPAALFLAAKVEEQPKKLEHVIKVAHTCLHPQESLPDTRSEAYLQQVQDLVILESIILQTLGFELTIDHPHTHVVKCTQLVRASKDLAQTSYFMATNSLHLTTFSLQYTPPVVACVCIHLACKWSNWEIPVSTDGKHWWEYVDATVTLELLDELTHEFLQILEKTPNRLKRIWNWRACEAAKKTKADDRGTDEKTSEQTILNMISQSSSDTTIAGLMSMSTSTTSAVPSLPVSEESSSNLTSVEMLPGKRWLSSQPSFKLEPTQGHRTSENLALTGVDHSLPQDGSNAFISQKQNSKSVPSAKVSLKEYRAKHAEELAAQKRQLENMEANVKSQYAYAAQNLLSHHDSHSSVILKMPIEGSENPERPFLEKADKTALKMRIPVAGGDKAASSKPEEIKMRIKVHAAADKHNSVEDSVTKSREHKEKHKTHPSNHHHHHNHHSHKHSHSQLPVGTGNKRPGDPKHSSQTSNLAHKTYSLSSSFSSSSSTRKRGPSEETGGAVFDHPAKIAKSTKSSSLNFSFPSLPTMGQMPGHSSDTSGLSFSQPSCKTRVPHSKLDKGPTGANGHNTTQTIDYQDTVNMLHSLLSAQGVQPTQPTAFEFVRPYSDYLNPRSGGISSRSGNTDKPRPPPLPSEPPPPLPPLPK

With `C1=NCC2(CCCCC2)n2c1cc1cnc(N[C@@H]3CCCNC3)nc12` [Compound 51, (R)-N-(piperidin-3-yl)-8′H-spiro[cyclohexane-1,9′-pyrazino[1′,2′:1,5]pyrrolo[2,3-d]pyrimidin]-2′-amine], the IC50 in experiment [1] is 1600 nM; in experiment [2] it was 490 nM; in experiment [3], 1500 nM; in experiment [4], 290 nM; in experiment [5], 230 nM; in [6], 200 nM. Further, the IC50 in experiment [7] was 610 nM; in experiment [8], 1500 nM; in experiment [9], 1100 nM; in [10], 900 nM.
In the case of `C1=NCC2(CCCCC2)n2c1cc1cnc(NC3CCOCC3)nc12` [Compound 52, N-(tetrahydro-2H-pyran-4-yl)-8′H-spiro[cyclohexane-1,9′-pyrazino[1′,2′:1,5]pyrrolo[2,3-d]pyrimidin]-2′-amine], the IC50 is 78 nM in experiment [1]; 8.7 nM in experiment [2]; 31 nM in experiment [3]; 67 nM in experiment [4]; 280 nM in experiment [5]; 58 nM in experiment [6]. Moreover, the IC50 in [7] came to 24 nM; in experiment [8] it was 32 nM; in experiment [9], 250 nM; in experiment [10] it was 16 nM.
For `C[C@H]1CC[C@@H](Nc2ncc3cc4n(c3n2)C2(CCCCC2)CN=C4)CC1` [Compound 53, N-((1s,4s)-4-methylcyclohexyl)-8′H-spiro[cyclohexane-1,9′-pyrazino[1′,2′:1,5]pyrrolo[2,3-d]pyrimidin]-2′-amine], the IC50 in [1] turned out to be 1500 nM; in experiment [2], 480 nM; in experiment [3], 1500 nM; in experiment [4] it was 2900 nM; in experiment [5] it was 4600 nM; in experiment [6], 890 nM. Moreover, the IC50 in [7] was 850 nM; in [8], 1500 nM; in experiment [9] it was 9000 nM; in experiment [10], 670 nM.
Take `C[C@H]1CC[C@H](Nc2ncc3cc4n(c3n2)C2(CCCCC2)CN=C4)CC1` [Compound 54, N-((1r,4r)-4-methylcyclohexyl)-8′H-spiro[cyclohexane-1,9′-pyrazino[1′,2′:1,5]pyrrolo[2,3-d]pyrimidin]-2′-amine]: the IC50 in [1] is 1700 nM; in [2], 260 nM; in experiment [3], 660 nM; in [4], 670 nM; in experiment [5], 3600 nM; in [6] it was 600 nM. In addition, the IC50 in experiment [7] was determined as 640 nM; in [8] it was 740 nM; in experiment [9], 2000 nM; in experiment [10] it was 420 nM.
For the compound `N[C@H]1CC[C@@H](Nc2ncc3cc4n(c3n2)C2(CCCCC2)CN=C4)CC1` [Compound 55, (1s,4s)-N^1-(8′H-spiro[cyclohexane-1,9′-pyrazino[1′,2′:1,5]pyrrolo[2,3-d]pyrimidin]-2′-yl)cyclohexane-1,4-diamine], the IC50 in [1] came to 1400 nM; in [2], 330 nM; in experiment [3] it was 2000 nM; in [4], 92 nM; in [5], 120 nM; in experiment [6] it was 22 nM. The IC50 was found to be 460 nM in [7], 1700 nM in experiment [8], 680 nM in experiment [9] and 810 nM in experiment [10].
